One test concerns the target T1, PPAR delta (Homo sapiens, UniProt Q03181).
T1 sequence (Q03181 171-441 limits assumed): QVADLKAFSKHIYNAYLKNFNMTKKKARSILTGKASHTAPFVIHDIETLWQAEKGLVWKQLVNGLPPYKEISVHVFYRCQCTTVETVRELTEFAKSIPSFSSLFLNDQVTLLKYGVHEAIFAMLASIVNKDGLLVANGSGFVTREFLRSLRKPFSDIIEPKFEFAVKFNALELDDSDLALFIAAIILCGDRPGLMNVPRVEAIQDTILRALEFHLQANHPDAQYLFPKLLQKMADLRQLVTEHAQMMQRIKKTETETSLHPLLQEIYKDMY
Put plainly: Transfection assay for PPAR receptors (PPAR-Gal4 / Gal4-Luciferase reporter in HEK293 cells). In kind it is cell-based. The procedure: Transfection Assay Method for PPAR Receptors
HEK293 cells were grown in DMEM/F-12 Media supplemented with 10% FBS and glutamine (GIBCOBRL). The cells were co-transfected with DNA for PPAR-Gal4 (PPARα, γ or δ) receptor and Gal4-Luciferase Reporter using the DMRIE-C Reagent. On the following day, the medium was replaced with 5% Charcoal treated FBS growth medium. After six hours, cells were trypsinized and seeded at a density of 50,000 cell/well into 96 well plates and incubated overnight at 37° C. in a 5% CO2 incubator. Cells were then treated with test compounds or vehicle and incubated for 24 hours at 37° C. in a 5% CO2 incubator. Luciferase activity was assayed using the Steady-Glo Luciferase Assay Kit from Promega. […] Steady-Glo Luciferase Assay Kit was purchased from Promega Part# E254B.

Test [1] relates to differentiated THP-1 monocytes. Conditions: cited from earlier work.
The mark [2] stands for this setting: HEK293 cells co-transfected with PPAR-Gal4 (δ) receptor and Gal4-Luciferase reporter, 24 hours, multiple EC50's = multiple measurements, Table 2.

The values below come from patent US8518997B2, “4-(phenoxyalkyl)thio)-phenoxyacetic acids and analogs” (Janssen Pharmaceutica N.V., priority 2003, dated 2013).

For `Cc1cc(SC[C@H](O)COc2ccc(C(F)(F)F)cc2)ccc1OCC(=O)O` [Compound 43, Acetic acid, {4-(2R)-2-hydroxy-3-(4-trifluoromethyl-phenoxy)-propylsulfanyl}-2-methyl-phenoxyy], at PPAR delta (setting [2]), the EC50 is 0.0432 µM.
With `CCOC(COc1ccc(C(F)(F)F)cc1)COc1ccc(OCC(=O)O)c(C)c1` (stereo not drawn) [Compound 44, {-4-[2-Ethoxy-3-(4-trifluoromethyl-phenoxy)-propoxy]-2-methyl-phenoxy}-acetic acid], it took 0.0243 µM to reach a half-maximal effect at PPAR delta (setting [2]) (EC50).
`Cc1cc(OCC(O)COc2ccc(C(F)(F)F)cc2)ccc1OCC(=O)O` (stereo not drawn) [Compound 45]: the EC50 on PPAR delta (setting [2]) was determined as 0.618 µM.
As for `Cc1cc(SCc2sc(-c3ccc(C(F)(F)F)cc3)nc2C)ccc1OCC(=O)O` [GW501516], in test [1], the “ABCA1 mRNA expression” value is on record as “induced” and the cholesterol efflux result is listed as “enhanced”.
Molecule `Cc1cc(SCCCOc2ccc(C(F)(F)F)cc2)ccc1OCC(=O)O` [{2-Methyl-4-[3-(4-trifluoromethyl-phenoxy)-propylsulfanyl]-phenoxy}-acetic acid] gave an EC50 on PPAR delta (Table 3 compounds of interest, tested likewise) of 0.0176 µM.
